# Patent US20160039936A1, “FIBROBLAST GROWTH FACTOR RECEPTOR INHIBITION FOR THE TREATMENT OF DISEASE” (UNIVERSITY OF MIAMI, priority 2011, published 2016)
# B1: FGF2: recombinant mouse FGF2 (Ala11-Ser154) (R&D Systems) (protein)
# chain: ALPEDGGAAFPPGHFKDPKRLYCKNGGFFLRIHPDGRVDGVREKSDPHVKLQLQAEERGVVSIKGVCANRYLAMKEDGRLLASKCVTEECFFFERLESNNYNTYRSRKYSSWYVALKRTGQYKLGSKTGPGQKAILFLPMSAKS
# B2: FGF23: recombinant mouse FGF23, 6His-tagged Tyr25-Val251 (Arg179Gln) (R&D Systems) (protein)
# chain: YPDTSPLLGSNWGSLTHLYTATARTSYHLQIHRDGHVDGTPHQTIYSALMITSEDAGSVVITGAMTRRFLCMDLHGNIFGSLHFSPENCKFRQWTLENGYDVYLSQKHHYLVSLGRAKRIFQPGTNPPPFSQFLARRNEVPLLHFYTVRPRRHTQSAEDPPERDPLNVLKPRPRATPVPVSCSRELPSAEEGGPAASDPLGVLRRGRGDARGGAGGADRCRPFPRFV
# modifications: left off: small tags and cut ends
# Key:
# isolated NRVM = test: Cross-sectional area (hypertrophy) of isolated NRVM with receptor antagonists (Example 4); format: cell-based, rat; settings: for cross-sectional area of isolated NRVM: 48 h, FGF alone 25 ng/ml vs PBS
# Protocol: (§1) NRVM were isolated using a standard isolation system (Worthington Biochemical Corporation) (Faul et al., 2011). Hearts from 1-2 day old Sprague Dawley rats were harvested, minced in calcium-and magnesium-free Hank's Balanced Salt Solution (HBSS), and the tissue digested with 50 μg/ml trypsin at 4° C. for 20-24 hours. Soybean trypsin inhibitor in HBSS was added, and the tissue was further digested with collagenase (in Leibovitz L-15 medium) under slow rotation (15 rpm) at 37° C. for 45 minutes. Cells were released by triturating the suspension 20 times with a standard 10 ml plastic serological pipette and filtering it twice through a cell strainer (70 μm, BD Falcon). Cells were incubated at room temperature for 20 minutes and spun at 100 g for 5 minutes. The cell pellet was resuspended in plating medium [Dulbecco's Modified Eagle Medium (DMEM; Cellgro) with 17% Media 199 (Invitrogen), 15% fetal bovine serum (FBS; Invitrogen) and 1% penicillin/streptomycin solution (P/S; Invitrogen)]. Cells were counted using a hemocytometer.
# Cells were plated on glass and plastic surfaces, which were coated with laminin (Invitrogen; 10 μg/ml in PBS) at room temperature for 1 hour prior to plating. For immunofluorescence analysis, 3×10^5 cells were seeded per well on glass coverslips in 24-well plates. For Western blot or qPCR analyses of total extracts, 1×10^6 cells were seeded per well in 6-well plates, and for immunoprecipitation assays, 5×10^6 cells were seeded in 10 cm-culture dishes. Cells were left undisturbed in plating medium at 37° C. for 72 hours and then cultured in maintenance medium (DMEM with 20% Media 199, 1% insulin-transferrin-sodium selenite solution [ITS; Sigma-Aldrich] and 1% P/S) in the presence of 100 μM 5-bromo-2′-deoxyuridine (BrdU; Sigam-Aldrich). After 4 days, isolated cardiac myocytes were cultured in BrdU-containing maintenance medium in the presence of recombinant murine FGF23 or FGF2 (both at 25 ng/ml) for different time points.
# Cultured cells were fixed in 2% PFA (in 5 mg/ml sucrose) for 5 minutes and permeabilized in 1% Triton X-100 (in PBS) for 10 minutes. We analyzed hypertrophic growth of isolated NRVM and NMVM on laminin-coated glass coverslips after 48 hours of treatment with growth factors. For FGFR4 expression and localization analyses, untreated NMVM from wild-type and FGFR4^−/− mice were immunolabeled. The mouse monoclonal antibody against sarcomeric α-actinin (EA-53; Sigma-Aldrich) was used at 1:1,000, and rabbit polyclonal anti-FGFR4 (C-16; Santa Cruz) at 1:50. Cy3-conjugated goat-anti mouse and Alexa488-conjugated goat-anti rabbit (Jackson Immuno Research) were used as secondary antibodies at 1:300. To visualize nuclei, fixed cells were incubated with 4′,6-diamidino-2-phenylindole (DAPI; 400 ng/ml in PBS) for 10 minutes. Immunofluorescence images were taken on a Leica TCS-SP5 confocal microscope with a 63× oil objective.
# Myocyte cross-sectional area was measured based on α-actinin-positive staining using Leica AF6000 fluorescence software. To assess the signaling pathways involved in FGF23- and FGF2-mediated hypertrophy, we analyzed the morphometry of plated cells that were pre-treated with specific inhibitors for 60 minutes prior to the addition of the FGFs at 25 ng/ml (NRVMs) or at 100 ng/ml (NMVMs). The following inhibitors and concentrations were used: pan-FGFR, PD173074 (Sigma-Aldrich) at 10 nM; FGFR1-3, AZD4547 (ChemieTek) at 5 nM; and FGFR4 blocking antibody (human monoclonal, U3-11; U3Pharma) at 10 μg/ml.
# [1] = system: isolated neonatal rat ventricular cardiac myocytes (NRVM); test: Surface area (hypertrophy) of isolated NRVM, immunocytochemistry and morphometry (Examples 1-2); format: cell-based; settings: for cell surface area: 48 h incubation with the FGF alone
# Protocol: as §1, with “(Toraason” for “(Faul”, “Toxicology, 56(1):107-117, 1989).” for “2011).”, “rats (Charles River)” for “rats”, “calcium- and” for “calcium-and”, “added” for “added,”, “by gently” for “by”
# Cells were plated on glass and plastic surfaces which were coated with laminin (Invitrogen; 10μg/ml in PBS) at room temperature for 1 hour prior to plating. For immunofluorescence analysis, 1×10^6 cells were seeded per well on glass coverslips in 6-well plates. For protein and RNA isolation, 2×10^6 cells were seeded in 6 cm-culture dishes. Cells were left undisturbed in plating medium at 37° C. for 72 hours and then cultured in maintenance medium (DMEM with 20% Media 199, 1% insulin-transferrin-sodium selenite solution (ITS; Sigma-Aldrich) and 1% P/S) in the presence of 100 μM 5-bromo-2′-deoxyuridine (BrdU; Sigam-Aldrich) to eliminate proliferating non-myocytes resulting in a relatively pure population of isolated cardiac myocytes (Bishopric et al., 1987). After 4 days, isolated cardiac myocytes were cultured in BrdU-containing maintenance medium in the presence of recombinant murine FGF23 (26.1 kDa, 251 amino acids; R&D Systems) or FGF2 (16.2 kDa, 144 amino acids; R&D Systems) for 48 hours.
# We analyzed isolated NRVM on laminin-coated glass coverslips by immunocytochemsitry according to our established protocols (Faul et al., Cell Biol., 169(3):415-424, 2005; Faul et al., Cell Biol., 27(23):8215-8227, 2007). The mouse monoclonal antibody against sarcomeric α-actinin (EA-53; Sigma-Aldrich) was used at 1:1000 and Cy3-conjugated goat-anti mouse (Jackson Immuno Research) as secondary antibody at 1:750. To visualize nuclei, fixed cells were incubated with 4′,6-diamidino-2-phenylindole (DAPI; 400 ng/ml in PBS) for 5 minutes. Immunofluorescence images were taken on a Leica TCS-SP5 confocal microscope with a 63× oil objective with a 1.6× zoom. Leica AF6000 fluorescence software was used to measure the cell surface area based on α-actinin-positive staining.
# To assess the signaling pathways involved in FGF23- and FGF2-mediated hypertrophy, we analyzed the morphometry of plated cells that were pre-treated with specific inhibitors for 60 minutes prior to the addition of the FGFs at varying concentrations.
Molecule,"FGF2-induced hypertrophy (cross-sectional area) with receptor antagonist (isolated NRVM; NRVM 48 h, FGF2 25 ng/ml, PD173074 10 nM, AZD4547 5 nM, anti-FGFR4 10 μg/ml)","FGF23-induced hypertrophy (cross-sectional area) with receptor antagonist (isolated NRVM; NRVM 48 h, FGF23 25 ng/ml, PD173074 10 nM, AZD4547 5 nM, anti-FGFR4 10 μg/ml)","FGF2-induced increase in cell surface area (hypertrophy) in presence of inhibitor ([1]; 48 h FGF2, inhibitor pre-treated 60 min at Table 2 concentration)","FGF23-induced increase in cell surface area (hypertrophy) in presence of inhibitor ([1]; 48 h FGF23, inhibitor pre-treated 60 min at Table 2 concentration)",cross-sectional area of isolated NRVM (isolated NRVM),cell surface area [1]
CCN(CC)CCCCNc1ncc2cc(-c3cc(OC)cc(OC)c3)c(NC(=O)NC(C)(C)C)nc2n1 [PD173074],inhibited,inhibited,completely blocked,completely blocked,,
B1,,,,,significantly increases,significant increase
B2,,,,,significantly increases,significant increase
